Results: patent publication US12336981B2, “Compounds and compositions for the inhibition of NAMPT” (Valo Health, Inc., priority 2010, dated 2025)
Read-outs that look alike come from different tables or passages of the source.

Columns and labels:
NAMPT = target: T1, NAMPT (Homo sapiens, UniProt P43490); experiment: Biochemical inhibition assay: NAMPT enzymatic reaction, NMN quantified by mass spectrometry; details: read-out: Biochem IC50
T1 construct: His tag; host or cells: E. coli
Method in brief: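 Inhibition of E. coli-expressed His-tagged human NAMPT, measured as NMN formation by mass spectrometry after a 30 min room-temperature reaction containing 1 μM NAM, 100 μM PRPP and 2.5 mM ATP.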

A2780 cells = experiment: In-vitro cell proliferation assay (SRB), A2780 cells; type: cell-based; details: Homo sapiens, A2780, 72 h, A2780 cells, 72 hours, read-out: A2780 IC50
Method in brief: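 Cells were plated overnight at 37° C., 5% CO2, then exposed to serially diluted compounds (0.1% DMSO final) for 72 hours. Viable cells were measured by sulforhodamine B staining after TCA fixation, read at 570 nm; media-only background was subtracted before % inhibition was calculated.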

T1 sequence (P43490 whole entry): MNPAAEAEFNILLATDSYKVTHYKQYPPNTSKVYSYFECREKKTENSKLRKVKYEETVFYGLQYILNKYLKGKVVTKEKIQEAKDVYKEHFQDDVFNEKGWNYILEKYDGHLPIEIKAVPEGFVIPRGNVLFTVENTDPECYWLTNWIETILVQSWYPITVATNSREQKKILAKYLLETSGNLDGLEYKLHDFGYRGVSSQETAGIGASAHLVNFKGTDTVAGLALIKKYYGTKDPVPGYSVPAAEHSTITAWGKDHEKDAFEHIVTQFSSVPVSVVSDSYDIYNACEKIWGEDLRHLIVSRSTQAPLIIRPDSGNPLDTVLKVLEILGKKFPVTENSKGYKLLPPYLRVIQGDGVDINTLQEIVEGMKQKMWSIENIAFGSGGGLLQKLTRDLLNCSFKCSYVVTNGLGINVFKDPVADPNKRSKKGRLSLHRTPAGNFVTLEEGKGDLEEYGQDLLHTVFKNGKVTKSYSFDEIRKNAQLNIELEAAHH

Row | SMILES | IC50 (NAMPT; NAMPT enzymatic reaction) | IC50 (A2780 cells; SRB) | IC50 (NAMPT; NAMPT enzymatic assay) | IC50 (A2780 cells; SRB assay)
1 | Cc1ccc(S(=O)(=O)c2ccc(CNC(=O)c3cnc4nccn4c3)cc2)c(F)c1 | 6.3 nM | 61.4 nM | – | –
2 | O=C(NCc1ccc(S(=O)(=O)c2ccc(OC(F)(F)F)c(F)c2)cc1)c1cc2ccncc2s1 | – | 11.5 nM | 11.5 nM | –
3 | Cc1cc(S(=O)(=O)c2ccc(CNC(=O)c3ccc4nccn4c3)cc2)ccc1F [N-({4-[(4-fluoro-3-methylbenzene)sulfonyl]phenyl}methyl)imidazo[1,2-a]pyridine-6-carboxamide] | 23.5 nM | 7.14 nM | – | –
4 | O=C(NCc1ccc(S(=O)(=O)c2cnc(N3CCCC3)s2)cc1)c1ccc2nccn2c1 [N-({4-[2-(pyrrolidin-1-yl)-1,3-thiazole-5-sulfonyl]phenyl}methyl)imidazo[1,2-a]pyridine-6-carboxamide] | – | 0.4 nM | 2.4 nM | –
5 | O=C(NCc1ccc(S(=O)(=O)c2c(Cl)cccc2Cl)cc1)c1cc2ccncc2s1 | 7.6 nM | 18.2 nM | – | –
6 | O=C(NCc1ccc(S(=O)(=O)c2cc(F)cc(N3CCCC3)c2)cc1)c1cnc2nccn2c1 | – | 2 nM | 3.1 nM | –
7 | O=C(NCc1ccc(S(=O)(=O)c2cccc3ccccc23)cc1)c1cnc2[nH]ncc2c1 [N-{[4-(naphthalene-1-sulfonyl)phenyl]methyl}-1H-pyrazolo[3,4-b]pyridine-5-carboxamide] | – | 3.68 nM | 9.1 nM | –
8 | COc1cc(Cl)cc(S(=O)(=O)c2ccc(CNC(=O)c3cc4ccncc4s3)cc2)c1 | 4.1 nM | 1.1 nM | – | –
9 | O=C(NCc1ccc(S(=O)(=O)c2cnc3ccccc3c2)cc1)c1cc2cnccc2[nH]1 [N-{[4-(quinoline-3-sulfonyl)phenyl]methyl}-1H-pyrrolo[3,2-c]pyridine-2-carboxamide] | – | 2.9 nM | 16.3 nM | –
10 | Cc1ccc(S(=O)(=O)c2ccc(CNC(=O)c3cnc4nccn4c3)cc2)c(Cl)c1 | 1.5 nM | 0.7 nM | – | –
11 | O=C(NCc1ccc(S(=O)(=O)c2cccc(C(F)(F)F)n2)cc1)c1cc2ccncc2s1 [N-({4-[6-(trifluoromethyl)pyridine-2-sulfonyl]phenyl}methyl)thieno[2,3-c]pyridine-2-carboxamide] | – | 2.2 nM | 2.1 nM | –
12 | CN1CCN(c2ccc(S(=O)(=O)c3ccc(CNC(=O)c4cc5cnccc5[nH]4)cc3)cc2)CC1 | – | 0.8 nM | 3 nM | –
13 | O=C(NCc1ccc(S(=O)(=O)c2csc(-c3cccc(F)c3)n2)cc1)c1cc2ccncc2o1 [N-({4-[2-(3-fluorophenyl)-1,3-thiazole-4-sulfonyl]phenyl}methyl)furo[2,3-c]pyridine-2-carboxamide] | – | 50.4 nM | 11.9 nM | –
14 | O=C(NCc1ccc(S(=O)(=O)c2cccc(CN3CCCCC3)c2)cc1)c1ccc2nccn2c1 | – | 3.5 nM | 9.1 nM | –
15 | CCCOc1ccc(S(=O)(=O)c2ccc(CNC(=O)c3cc4ccncc4s3)cc2)c(C)c1 [N-({4-[(2-methyl-4-propoxybenzene)sulfonyl]phenyl}methyl)thieno[2,3-c]pyridine-2-carboxamide] | 12.9 nM | 1.7 nM | – | –
16 | Cc1cccc(S(=O)(=O)c2ccc(CNC(=O)c3cnc4nccn4c3)cc2)c1 | 1.9 nM | 9.1 nM | – | –
17 | Cc1cnc(S(=O)(=O)c2ccc(CNC(=O)c3cc4ccncc4o3)cc2)n1C [N-{[4-(1,5-dimethyl-1H-imidazole-2-sulfonyl)phenyl]methyl}furo[2,3-c]pyridine-2-carboxamide] | – | 65.9 nM | 57.4 nM | –
18 | O=C(NCc1ccc(S(=O)(=O)c2cccc(C(F)(F)F)c2Cl)cc1)c1cc2cnccc2[nH]1 | – | 8.8 nM | 36.4 nM | –
19 | O=C(NCc1ccc(S(=O)(=O)c2ccccc2OC(F)(F)F)cc1)c1cc2ccncc2o1 | – | 14.6 nM | 8.6 nM | –
20 | CS(=O)(=O)c1cccc(S(=O)(=O)c2ccc(CNC(=O)c3ccc4nccn4c3)cc2)c1 | 25.6 nM | 16 nM | – | –
21 | Cc1ccc(F)cc1S(=O)(=O)c1ccc(CNC(=O)c2cnc3nccn3c2)cc1 | – | 35.1 nM | 2.7 nM | –
22 | Cc1ccc(S(=O)(=O)c2ccc(CNC(=O)c3cc4ccncc4s3)cc2)cc1F [N-({4-[(3-fluoro-4-methylbenzene)sulfonyl]phenyl}methyl)thieno[2,3-c]pyridine-2-carboxamide] | 3 nM | – | – | 2.8 nM
23 | O=C(NCc1ccc(S(=O)(=O)c2ccc(CO)cc2)cc1)c1cc2ccncc2o1 | – | 6.2 nM | 4.9 nM | –
24 | Cn1c(S(=O)(=O)c2ccc(CNC(=O)c3cc4ccncc4s3)cc2)cc2ccccc21 [N-{[4-(1-methyl-1H-indole-2-sulfonyl)phenyl]methyl}thieno[2,3-c]pyridine-2-carboxamide] | – | 3.4 nM | 5.2 nM | –

Row | SMILES | IC50 (NAMPT; NAMPT enzymatic reaction) | IC50 (A2780 cells; SRB) | IC50 (NAMPT; NAMPT enzymatic assay) | IC50 (A2780 cells; SRB assay)
25 | Cc1cn(C)c(S(=O)(=O)c2ccc(CNC(=O)c3ccc4nccn4c3)cc2)n1 [N-{[4-(1,4-dimethyl-1H-imidazole-2-sulfonyl)phenyl]methyl}imidazo[1,2-a]pyridine-6-carboxamide] | – | 95.4 nM | 100 to 1000 nM | –
26 | O=C(NCc1ccc(S(=O)(=O)c2cc(F)ccc2Cl)cc1)c1ccc2nccn2c1 | 21 nM | 6.3 nM | – | –
27 | COc1ccc(Cl)c(S(=O)(=O)c2ccc(CNC(=O)c3cnc4[nH]ncc4c3)cc2)c1 [N-({4-[(2-chloro-5-methoxybenzene)sulfonyl]phenyl}methyl)-1H-pyrazolo[3,4-b]pyridine-5-carboxamide] | 24.7 nM | 66.8 nM | – | –
28 | COc1cc(Cl)ccc1S(=O)(=O)c1ccc(CNC(=O)c2cc3ccncc3o2)cc1 | 8.5 nM | 24.8 nM | – | –
29 | COc1ccc(S(=O)(=O)c2ccc(CNC(=O)c3cnc4[nH]ncc4c3)cc2)c(OC)n1 [N-{[4-(2,6-dimethoxypyridine-3-sulfonyl)phenyl]methyl}-1H-pyrazolo[3,4-b]pyridine-5-carboxamide] | – | 2 nM | 30.7 nM | –
30 | COc1cc(C)cc(OC)c1S(=O)(=O)c1ccc(CNC(=O)c2cc3ccncc3s2)cc1 [N-({4-[(2,6-dimethoxy-4-methylbenzene)sulfonyl]phenyl}methyl)thieno[2,3-c]pyridine-2-carboxamide] | 7 nM | – | – | 3 nM
31 | CCCCOc1cccc(F)c1S(=O)(=O)c1ccc(CNC(=O)c2cc3ccncc3o2)cc1 | 25.6 nM | 69.8 nM | – | –
32 | COc1cc(C)cc(S(=O)(=O)c2ccc(CNC(=O)c3cc4cnccc4[nH]3)cc2)c1 | 9.6 nM | 2.8 nM | – | –
33 | CCCCOc1cccc(S(=O)(=O)c2ccc(CNC(=O)c3cc4ccncc4s3)cc2)c1 | 3.3 nM | 38.7 nM | – | –
34 | COc1cc(Cl)cc(S(=O)(=O)c2ccc(CNC(=O)c3cc4ccncc4o3)cc2)c1 | 26.5 nM | 1.5 nM | – | –
35 | COc1cc(-n2cccn2)ccc1S(=O)(=O)c1ccc(CNC(=O)c2ccc3nccn3c2)cc1 [N-[(4-{[2-methoxy-4-(1H-pyrazol-1-yl)benzene]sulfonyl}phenyl)methyl]imidazo[1,2-a]pyridine-6-carboxamide] | – | 3.59 nM | 21 nM | –
36 | Cc1c(F)cccc1S(=O)(=O)c1ccc(CNC(=O)c2ccc3nccn3c2)cc1 | 46.9 nM | 13.2 nM | – | –
37 | Cc1cc(S(=O)(=O)c2ccc(CNC(=O)c3cc4cnccc4[nH]3)cc2)ccc1F [N-({4-[(4-fluoro-3-methylbenzene)sulfonyl]phenyl}methyl)-1H-pyrrolo[3,2-c]pyridine-2-carboxamide] | 9 nM | – | – | 7 nM
38 | CCCOc1ccc(S(=O)(=O)c2ccc(CNC(=O)c3cnc4nccn4c3)cc2)cc1Cl | 3.9 nM | 2.4 nM | – | –
39 | O=C(NCc1ccc(S(=O)(=O)c2cccc(C(F)(F)F)n2)cc1)c1cnc2nccn2c1 [N-({4-[6-(trifluoromethyl)pyridine-2-sulfonyl]phenyl}methyl)imidazo[1,2-a]pyrimidine-6-carboxamide] | – | 20.4 nM | 11.4 nM | –
40 | O=C(NCc1ccc(S(=O)(=O)c2cc(F)cc(N3CCCC3)c2)cc1)c1ccc2nccn2c1 | – | 2.2 nM | 3.9 nM | –
41 | O=C(NCc1ccc(S(=O)(=O)c2ccccc2Oc2ccccc2)cc1)c1ccc2nccn2c1 [N-({4-[(2-phenoxybenzene)sulfonyl]phenyl}methyl)imidazo[1,2-a]pyridine-6-carboxamide] | 63.6 nM | 60.7 nM | – | –
42 | Cn1ncc2cc(S(=O)(=O)c3ccc(CNC(=O)c4cc5ccncc5o4)cc3)ccc21 [N-{[4-(1-methyl-1H-indazole-5-sulfonyl)phenyl]methyl}furo[2,3-c]pyridine-2-carboxamide] | – | 3.5 nM | 3.3 nM | –
43 | CCOc1ccc(S(=O)(=O)c2ccc(CNC(=O)c3cc4ccncc4o3)cc2)c(C)c1 | 21.6 nM | 27.4 nM | – | –
44 | COc1cccc(S(=O)(=O)c2ccc(CNC(=O)c3cc4cnccc4[nH]3)cc2)c1F [N-({4-[(2-fluoro-3-methoxybenzene)sulfonyl]phenyl}methyl)-1H-pyrrolo[3,2-c]pyridine-2-carboxamide] | 10 nM | – | – | 7 nM
45 | COc1cccc(S(=O)(=O)c2ccc(CNC(=O)c3cnc4nccn4c3)cc2)n1 [N-{[4-(6-methoxypyridine-2-sulfonyl)phenyl]methyl}imidazo[1,2-a]pyrimidine-6-carboxamide] | – | 5.9 nM | 2.2 nM | –
46 | Cc1cc(F)ccc1S(=O)(=O)c1ccc(CNC(=O)c2cnc3[nH]ncc3c2)cc1 [N-({4-[(4-fluoro-2-methylbenzene)sulfonyl]phenyl}methyl)-1H-pyrazolo[3,4-b]pyridine-5-carboxamide] | 78.8 nM | 98.3 nM | – | –
47 | COc1c(Cl)ccc(S(=O)(=O)c2ccc(CNC(=O)c3ccc4nccn4c3)cc2)c1Cl | 31.1 nM | 13 nM | – | –
48 | CCOc1cccc(S(=O)(=O)c2ccc(CNC(=O)c3cnc4[nH]ncc4c3)cc2)c1 | 14.6 nM | 19 nM | – | –
